Reference: patent US20120122931A1, “INDOLE DERIVATIVE OR PHARMACEUTICALLY ACCEPTABLE SALT THEREOF” (KISSEI PHARMACEUTICAL CO., LTD., priority 2009, published 2012)

Assays:
[1] = tested on: sulprostone-induced bladder contraction; assay: Inhibitory effect of compound on sulprostone-induced bladder contraction; assay type: in vivo; details: test agent 1.0 mg/kg intravenously, sulprostone 0.3 mg/kg subcutaneously, female SD rats
Method: Female SD rats were used. Under urethane anesthesia (1.25 g/kg, administered subcutaneously), a tracheal cannula (Size 8, HIBIKI) and a femoral vein cannula for administration (23G needle-equipped PESO) were inserted thereinto. The bladder cannula (PESO) was inserted from the bladder apex. The bladder cannula was connected to a three-way stopcock, and then, one was connected to a pressure transducer and the other was connected to a syringe filled with saline. Saline was injected to the bladder at an injection rate of 3.6 mL/hour and the bladder contraction pressure was recorded at the time of injection with a recorder (RECTI-HORITZ-8K, NEC Corporation). After 10 minutes from stabilization of the bladder contraction pressure during urination, sulprostone was administered subcutaneously (0.3 mg/kg). Then, at the time point when the bladder contraction pressure became constant, a test agent was administered intravenously (1.0 mg/kg). An average bladder contraction pressure during the 10 minutes period before administration of sulprostone was taken as a baseline (0%). Further, an average bladder contraction pressure during the 10 minutes period before administration of the test agent was taken as a maximum bladder contraction pressure (100%). […] The ratio of this measured value to the maximum bladder contraction pressure was calculated by the following equation and taken as an average bladder contraction rate after administration of the test agent: (Average Bladder Contraction Rate after Administration of Test Agent (%))=(Average Bladder Contraction Pressure after Administration of Test Agent)/(Maximum Bladder Contraction Pressure). In addition, the difference between the maximum bladder contraction rate (100%) and the average bladder contraction rate (%) after administration of the test agent was calculated by the following equation and taken as a bladder contraction inhibition rate of the test agent: (Bladder Contraction Inhibition Rate)=100%−(Average Bladder Contraction Rate after Administration of Test Agent (%)).

rat EP1 receptor = molecular target: T1, rat EP1 receptor (Rattus norvegicus, UniProt P70597); assay: Test for confirmation of EP1 receptor antagonism: inhibition of prostaglandin E2-induced increase in intracellular calcium concentration (Method A or Method B); assay type: cell-based; details: rat EP1 receptor-expressing cells, prostaglandin E2 10 nM
T1 construct: expressed in transfected cells; host or cells: COS-1 cells, transient transfection with Lipofectamine 2000
T1 sequence (P70597 1-405): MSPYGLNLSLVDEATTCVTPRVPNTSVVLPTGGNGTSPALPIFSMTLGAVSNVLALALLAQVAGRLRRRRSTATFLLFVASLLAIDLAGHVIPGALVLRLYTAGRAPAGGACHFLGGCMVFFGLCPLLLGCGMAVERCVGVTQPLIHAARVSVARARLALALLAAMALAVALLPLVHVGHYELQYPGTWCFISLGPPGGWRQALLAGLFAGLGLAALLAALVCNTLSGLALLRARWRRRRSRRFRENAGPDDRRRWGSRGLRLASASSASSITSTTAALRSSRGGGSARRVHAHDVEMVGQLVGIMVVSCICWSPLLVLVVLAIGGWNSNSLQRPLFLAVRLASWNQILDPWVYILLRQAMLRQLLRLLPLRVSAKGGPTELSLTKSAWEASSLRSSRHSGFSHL
Procedure, shortened: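 Rat EP1 (NM_013100-matching clone) transiently expressed in COS-1 cells via Lipofectamine 2000, 200 ng vector/well, transfected about 2 h after seeding at 5×10^4 cells/well. Cells cultured at 37° C, 5% CO2.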

[2] = Method A (Fluo-4 NW, FlexStation)

SMILES	Bladder Contraction Inhibition Rate (%) 15 Minutes [1]	Bladder Contraction Inhibition Rate (%) [1]	IC50 (rat EP1 receptor; [2])	IC50 (rat EP1 receptor; Method B (Calcium kit II Fluo 4, FDSS 7000))
COc1ccc2c(Cc3cccc(C(=O)O)n3)c(-c3ccccc3)[nH]c2c1 [Example 4-1, 6-(6-methoxy-2-phenyl-1H-indol-3-ylmethyl)pyridine-2-carboxylic acid]	90.1%	94.2%	0.01 µM	
COc1ccc2c(Cc3cccc(C(=O)O)n3)c(-c3csc(C)c3)[nH]c2c1 [Example 11-20, 6-[6-methoxy-2-(5-methylthiophen-3-yl)-1H-indol-3-ylmethyl]pyridine-2-carboxylic acid]	81.4%	82.9%	0.026 µM	
COc1ccc2c(Cc3cccc(C(=O)O)n3)c(-c3cccc(F)c3)[nH]c2c1 [Example 11-5, 6-[2-(3-fluorophenyl)-6-methoxy-1H-indol-3-ylmethyl]pyridine-2-carboxylic acid]	79.7%	81.9%		0.014 µM
COc1ccc2c(Cc3cccc(C(=O)O)c3)c(-c3ccccc3)[nH]c2c1 [Example 4-2, 3-(6-methoxy-2-phenyl-1H-indol-3-ylmethyl)benzoic acid]	78.3%	80.4%	0.032 µM	
COc1ccc2c(Cc3cccc(C(=O)O)n3)c(-c3ccsc3)[nH]c2c1 [Example 11-1, 6-(6-methoxy-2-thiophen-3-yl-1H-indol-3-ylmethyl)pyridine-2-carboxylic acid]	86.1%	76.8%	0.011 µM	
